According to patent US5017574A, “Novel imidazobenzodiazepines” (Roussel Uclaf, priority 1989, dated 1991):
pIC50: −log10 of the molar value.

Tests used:
benzodiazepine receptors [1] = assay: Affinity for benzodiazepine receptors: inhibition of specific 3H-flunitrazepam binding (Test 1); details: 0.6×10^-9 mol 3H-flunitrazepam; membranes from the rear portion of the rat brain; read-out: Test 1: concentration which inhibited 50% of the specific binding of 3H-labelled flunitrazepam (IC50)
Protocol: The affinity of the active ingredients for the benzodiazepine receptors was measured using a radioactively labelled (^3 H) compound, flunitrazepam, in a modified version of the method of Squires et al (Nature, 1977, Vol. 266, p. 732). The values given in Table 2 below are the concentration (mol×10^-9) of the test compound which inhibited 50% of the specific binding of 0.6×10^-9 mol of ^3 H-labelled flunitrazepam in preparation of membranes from the rear portion of the brain in rats (IC50 values).

benzodiazepine receptors [2] = assay: In vivo binding to benzodiazepine receptors (Test 2); details: ip
Protocol: Measurement of in vivo binding to benzodiazepine receptors was carried out according to the method described by Goeders at al., Life Sciences (1985) Vol. 37, p. 345.

SMILES	pIC50 (benzodiazepine receptors [1])	Test 2: ED50, in vivo binding to benzodiazepine receptors (benzodiazepine receptors [2])
CN1Cc2c(C3OCCS3)ncn2-c2cccc(C(F)(F)F)c2C1=O (stereo not drawn) [Example 4, 5,6-dihydro-5-methyl-3-(1,3-oxathiolan-2-yl)-7-trifluoromethyl-imidazo[1,5-a][1,4]benzodiazepine-6(4H)-one]	8.00	0.08 mg/kg
CN1Cc2c(C3OCCO3)ncn2-c2ccccc2C1=O [Example 1, 5,6-dihydro-3-(1,3-dioxolan-2-yl)-5-methyl-imidazo[1,5-a][1,4]benzodiazepine-6(4H)-one]	5.97	1.0 mg/kg
CN1Cc2c(C3OCCO3)ncn2-c2cccc(C(F)(F)F)c2C1=O [Example 3, 5,6-dihydro-3-(1,3-dioxolan-2-yl)-5-methyl-7-trifluoromethyl-imidazo[1,5-a][1,4]benzodiazepine-6(4H)-one]	7.14	0.09 mg/kg
CN1Cc2c(C3OCCS3)ncn2-c2ccccc2C1=O (stereo not drawn) [Example 5, 5,6-dihydro-5-methyl-3-(1,3-oxathiolan-2-yl)-imidazo[1,5-a][1,4]benzodiazepine-6(4H)-one]	6.47	0.8 mg/kg
CN1Cc2c(C3SCCS3)ncn2-c2ccccc2C1=O [Example 2, 5,6-dihydro-3-(1,3-dithiolan-2-yl)-5-methyl-imidazo[1,5-a][1,4]benzodiazepine-6(4H)-one]	7.03	7.0 mg/kg
CN1Cc2c(C3OCCS3)ncn2-c2cccc(F)c2C1=O (stereo not drawn) [Example 6, 5,6-dihydro-7-fluoro-5-methyl-3-(1,3-oxathiolan-2-yl)-imidazo[1,5-a][1,4]benzodiazepine-6(4H)-one]	7.44	0.22 mg/kg
